This is an account of results in patent US12054483B2, “Small molecule inhibitors of DYRK/CLK and uses thereof” (Arizona Board of Regents on Behalf of the University of …, priority 2018, dated 2024).

Molecules are shown by their SMILES.

For this assay, the target named is DYRK1A (Homo sapiens, UniProt Q13627). Briefly: Affinity testing of compounds with DYRK1A (KD). The class given is binding. The settings on record: DYRK1A affinity key classes.
In the case of `Cc1nc2ccc(-c3ccnc(N)c3)nc2n1-c1ccc(N2CCOCC2)c(Cl)c1` [Compound 168, 4-(3-(3-chloro-4-morpholinophenyl)-2-methyl-3H-imidazo[4,5-b]pyridin-5-yl)pyridin-2-amine], the Kd is 0.0005 to 0.1 µM. To `Cc1nc2ccc(-c3ccncc3)nc2n1-c1cccc(CN2CCOCC2)c1` [Compound 140, 4-(3-(2-methyl-5-(pyridin-4-yl)-3H-imidazo[4,5-b]pyridin-3-yl)benzyl)morpholine] belongs 0.0005 to 0.1 µM; to `N#Cc1ccnc(-n2cnc3ccc(-c4ccncc4)c(F)c32)c1` [Compound 11, 2-(7-fluoro-6-(pyridin-4-yl)-1H-benzo[d]imidazol-1-yl)isonicotinonitrile], 0.101 to 0.5 µM. The molecule `COc1ccc(-n2c(C)nc3ccc(-c4ccncc4)nc32)cc1` [Compound 43, 3-(4-methoxyphenyl)-2-methyl-5-(pyridin-4-yl)-3H-imidazo[4,5-b]pyridine] came in with a dissociation constant Kd of 0.0005 to 0.1 µM. To `Cc1c2cc(-n3c(C)nc4ccc(-c5ccncc5)nc43)ccc2nn1C` [Compound 139, 3-(2,3-dimethyl-2H-indazol-5-yl)-2-methyl-5-(pyridin-4-yl)-3H-imidazo[4,5-b]pyridine] belongs 0.0005 to 0.1 µM. Turning to `Cc1nc2ccc(-c3ccnc(N)c3)nc2n1-c1ccc2[nH]cnc2c1` [Compound 49, 4-(3-(1H-benzo[d]imidazol-5-yl)-2-methyl-3H-imidazo[4,5-b]pyridin-5-yl)pyridin-2-amine], the Kd is 0.0005 to 0.1 µM. To `Cc1nc2ccc(-c3ccnc(N)c3)nc2n1-c1ccc(N2CCOC[C@H]2C)c(F)c1` [Compound 170, (R)-4-(3-(3-fluoro-4-(3-methylmorpholino)phenyl)-2-methyl-3H-imidazo[4,5-b]pyridin-5-yl)pyridin-2-amine] belongs 0.0005 to 0.1 µM. For `Cc1nc2ccc(-c3ccnc(N)c3)nc2n1-c1ccc2[nH]ccc2c1` [Compound 150, 4-(3-(1H-indol-5-yl)-2-methyl-3H-imidazo[4,5-b]pyridin-5-yl)pyridin-2-amine] the value was 0.0005 to 0.1 µM.

`Cc1nc2ccc(-c3ccncc3)nc2n1-c1ccc(CN2CCN(C)CC2)cc1` [Compound 125, 2-methyl-3-(4-((4-methylpiperazin-1-yl)methyl)phenyl)-5-(pyridin-4-yl)-3H-imidazo[4,5-b]pyridine]: the Kd was 0.0005 to 0.1 µM.

With `Cc1nc2ccc(-c3ccncc3)nc2n1-c1ccc(CN2CC3CCC(C2)O3)cc1` [Compound 122, 3-(4-(2-methyl-5-(pyridin-4-yl)-3H-imidazo[4,5-b]pyridin-3-yl)benzyl)-8-oxa-3-azabicyclo[3.2.1]octane], the Kd was in the range of 0.0005 to 0.1 µM. To `Cc1cc(-c2ccc3nc(C)n(-c4ccc5[nH]cnc5c4)c3n2)cc(C)n1` [Compound 51, 3-(1H-benzo[d]imidazol-5-yl)-5-(2,6-dimethylpyridin-4-yl)-2-methyl-3H-imidazo[4,5-b]pyridine] belongs 0.101 to 0.5 µM.

`Cc1nc2ccc(-c3ccnc4[nH]ccc34)nc2n1-c1ccc(CN2CCOCC2)cc1` [Compound 179, 4-(4-(2-methyl-5-(1H-pyrrolo[2,3-b]pyridin-4-yl)-3H-imidazo[4,5-b]pyridin-3-yl)benzyl)morpholine] gave an equilibrium dissociation constant (Kd) of 0.0005 to 0.1 µM. For `Cc1nc2ccc(-c3ccncc3)nc2n1-c1ccc(CN2C[C@@H](C)N(C)[C@@H](C)C2)cc1` [Compound 119, 2-methyl-5-(pyridin-4-yl)-3-(4-(((3R,5S)-3,4,5-trimethylpiperazin-1-yl)methyl)phenyl)-3H-imidazo[4,5-b]pyridine] the value was 0.0005 to 0.1 µM; for `CC(=O)N1CCc2cc(-n3c(C)nc4ccc(-c5ccnc(N)c5)nc43)ccc21` [Compound 154, 1-(5-(5-(2-aminopyridin-4-yl)-2-methyl-3H-imidazo[4,5-b]pyridin-3-yl)indolin-1-yl)ethan-1-one], 0.0005 to 0.1 µM. `COc1cc(-n2c(C)nc3ccc(-c4ccncc4)nc32)ccc1CN1CCOCC1` [Compound 142, 4-(2-methoxy-4-(2-methyl-5-(pyridin-4-yl)-3H-imidazo[4,5-b]pyridin-3-yl)benzyl)morpholine] registered a Kd of 0.101 to 0.5 µM. To `Fc1cnccc1-c1ccc2ncc(-c3ccc(CN4CCOCC4)cc3)n2n1` [Compound 105, 4-(4-(6-(3-fluoropyridin-4-yl)imidazo[1,2-b]pyridazin-3-yl)benzyl)morpholine] belongs 0.501 to 10 µM. The molecule `N#Cc1ccc(-n2cnc3ccc(-c4ccncc4)c(F)c32)nc1` [Compound 14, 6-(7-fluoro-6-(pyridin-4-yl)-1H-benzo[d]imidazol-1-yl)nicotinonitrile] yielded a Kd of 0.0005 to 0.1 µM. For `Fc1cc(-c2cnc3ccc(-c4ccncc4)nn23)ccc1CN1CCCCC1` [Compound 79, 3-(3-fluoro-4-(piperidin-1-ylmethyl)phenyl)-6-(pyridin-4-yl)imidazo[1,2-b]pyridazine] the value was 0.101 to 0.5 µM; for `Cc1nc2cc(-c3ccnc(N)c3)cnc2[nH]1` [Compound 71, 4-(2-methyl-3H-imidazo[4,5-b]pyridin-6-yl)pyridin-2-amine], 0.0005 to 0.1 µM; for `Cc1nc2ccc(-c3ccnc(N)c3)nc2n1-c1ccc(N2C[C@H]3C[C@H]2CO3)nc1` [Compound 160, 4-(3-(6-((1R,4S)-2-oxa-5-azabicyclo[2.2.1]heptan-5-yl)pyridin-3-yl)-2-methyl-3H-imidazo[4,5-b]pyridin-5-yl)pyridin-2-amine], 0.0005 to 0.1 µM. To `COc1cnc(-c2ccnc(N)c2)nc1` [Compound 69, 4-(5-methoxypyrimidin-2-yl)pyridin-2-amine] belongs 0.101 to 0.5 µM. In turn, `Cc1nc2ccc(-c3ccncc3)nc2n1-c1ccc(CN2CCOC(C)(C)C2)cc1` [Compound 120, 2,2-dimethyl-4-(4-(2-methyl-5-(pyridin-4-yl)-3H-imidazo[4,5-b]pyridin-3-yl)benzyl)morpholine] registered a Kd of 0.0005 to 0.1 µM. For `c1cc(-c2ccc3nnn(-c4ccc5[nH]cnc5c4)c3n2)ccn1` [Compound 59, 3-(1H-benzo[d]imidazol-5-yl)-5-(pyridin-4-yl)-3H-[1,2,3]triazolo[4,5-b]pyridine] the value was 0.0005 to 0.1 µM.
